Where a name gives a salt, the structure may show the parent alone.
Experiments:
[1] = test system: Human umbilical vein endothelial cells (HUVEC); assay: Inhibition of growth factor-mediated cell proliferation (hFGF-2); assay type: cell-based; details: Homo sapiens, HUVEC, 72 h, 72 h exposure, hFGF-2 stimulated; from averaged pIC50 values
Protocol: Human umbilical vein endothelial cells (HUVEC) were obtained from Cellsystems (FC-0003) and grown in Vasculife VEGF complete medium (Cellsystems, LL-1020) containing 2% fetal bovine serum (FBS) at 37° C. and 5% CO2. The cells were used for proliferation assays up to passage 7.
The HUVEC cells were harvested using accutase (PAA, L11-007) and seeded in columns 2 to 12 of 96-well plates (Falcon MICROTEST tissue culture plate 96-well flat bottom, BD 353075, or μCLEAR-PLATE, black, 96-well, Greiner Bio-One, No. 655090) at a cell density of 2500 cells/well in 100 μl Vasculife VEGF complete medium with column 1 remaining empty as blank. Cells were allowed to incubate at 37° C. and 5% CO2 for at least 6 h. Then, the cells were washed once with PBS and starved overnight in Vasculife basal medium (Cellsystems, LM-0002) containing heparin, ascorbate and L-glutamine (components of the Vasculife Life Factors Kit, Cellsystems, LL-1020) as well as 0.2% FBS.
After about 18 h, the starving medium was discarded, and the cells were exposed for 72 h to 9 consecutive log or half-log concentrations of test compound in the range of 10 pM to 30 μM and to 5, 10 or 20 ng/ml hFGF-2 (recombinant human FGF basic, R&D Systems, 233-FB) in 100 μl starving medium. 10 mM stock solutions of test compounds in DMSO were diluted to 200× final concentration in DMSO resulting in a final DMSO concentration of 0.5% in all wells. Controls consisted of cells grown in starving medium only and of cells grown in hFGF-2 containing starving medium with 0.5% DMSO. To determine cell proliferation, 5 μl Alamar Blue solution (Biosource, DAL1100) was added to each well (1:20 dilution), and the cells were allowed to incubate for further 4 h at 37° C. and 5% CO2 before measuring fluorescence (ex. 535 nm, em. 595 nm) with a Spectrafluor Plus Tecan plate reader (XFLUOR4 version 4.20). In some experiments, an ATP Determination Kit (BIAFFIN GmbH, LBR-T100) was used according to the manufacturer's instructions. In each experiment, samples were assayed in triplicate, and the standard deviations were determined GraphPad Prism 5 software was used to analyze the data and to obtain IC50 values. All test compounds were assayed 2 to 10 times in independent experiments and similar results were obtained.

human FGFR-1 = human FGFR-1 (Homo sapiens, UniProt P11362); assay: FGFR-1 high ATP kinase assay (TR-FRET)
human FGFR-3 = human FGFR-3 (Homo sapiens (Human), UniProt P22607); assay: FGFR-3 kinase assay (TR-FRET); assay type: biochemical; details: 10 μM ATP, 15 min pre-incubation with enzyme
human mTOR = human mTOR (Homo sapiens (Human), UniProt P42345); assay: mTOR kinase assay (TR-FRET, for comparative purposes); assay type: biochemical; details: read-out: mTOR % inhibition @ 1 μM, 1 μM test compound, 40 μM ATP, mean values
Sequence of human mTOR (P42345 1360-2549): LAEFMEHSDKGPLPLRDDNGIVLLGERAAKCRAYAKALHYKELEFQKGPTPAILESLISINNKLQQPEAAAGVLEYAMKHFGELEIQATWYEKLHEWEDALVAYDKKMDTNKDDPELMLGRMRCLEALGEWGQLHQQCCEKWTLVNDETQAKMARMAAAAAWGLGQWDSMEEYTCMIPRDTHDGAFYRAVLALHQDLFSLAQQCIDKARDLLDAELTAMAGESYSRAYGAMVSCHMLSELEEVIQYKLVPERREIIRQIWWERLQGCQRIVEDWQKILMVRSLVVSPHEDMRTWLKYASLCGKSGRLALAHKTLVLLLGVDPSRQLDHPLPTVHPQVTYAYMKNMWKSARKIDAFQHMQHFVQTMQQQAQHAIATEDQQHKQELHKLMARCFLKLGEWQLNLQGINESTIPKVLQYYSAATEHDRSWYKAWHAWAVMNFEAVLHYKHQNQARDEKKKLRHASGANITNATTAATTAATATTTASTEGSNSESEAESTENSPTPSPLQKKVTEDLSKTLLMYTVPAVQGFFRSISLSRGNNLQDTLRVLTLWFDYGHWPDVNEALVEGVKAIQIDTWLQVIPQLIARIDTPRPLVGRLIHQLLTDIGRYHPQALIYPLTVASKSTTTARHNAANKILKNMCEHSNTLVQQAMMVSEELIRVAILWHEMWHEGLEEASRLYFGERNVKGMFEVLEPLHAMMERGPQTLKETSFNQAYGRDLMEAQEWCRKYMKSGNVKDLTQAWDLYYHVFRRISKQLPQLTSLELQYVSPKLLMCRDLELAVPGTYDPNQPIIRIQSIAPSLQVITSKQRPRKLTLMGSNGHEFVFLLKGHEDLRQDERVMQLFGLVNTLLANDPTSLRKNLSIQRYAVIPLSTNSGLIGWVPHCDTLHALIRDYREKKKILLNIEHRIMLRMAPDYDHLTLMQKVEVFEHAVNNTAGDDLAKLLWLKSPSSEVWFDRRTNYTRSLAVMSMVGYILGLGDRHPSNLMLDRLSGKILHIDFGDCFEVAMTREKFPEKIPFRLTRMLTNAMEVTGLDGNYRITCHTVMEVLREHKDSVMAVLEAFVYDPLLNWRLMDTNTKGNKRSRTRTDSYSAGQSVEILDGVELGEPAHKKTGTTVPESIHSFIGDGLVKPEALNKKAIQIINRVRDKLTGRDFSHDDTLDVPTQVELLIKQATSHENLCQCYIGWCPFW

Sequence of human FGFR-3 (P22607 397-806): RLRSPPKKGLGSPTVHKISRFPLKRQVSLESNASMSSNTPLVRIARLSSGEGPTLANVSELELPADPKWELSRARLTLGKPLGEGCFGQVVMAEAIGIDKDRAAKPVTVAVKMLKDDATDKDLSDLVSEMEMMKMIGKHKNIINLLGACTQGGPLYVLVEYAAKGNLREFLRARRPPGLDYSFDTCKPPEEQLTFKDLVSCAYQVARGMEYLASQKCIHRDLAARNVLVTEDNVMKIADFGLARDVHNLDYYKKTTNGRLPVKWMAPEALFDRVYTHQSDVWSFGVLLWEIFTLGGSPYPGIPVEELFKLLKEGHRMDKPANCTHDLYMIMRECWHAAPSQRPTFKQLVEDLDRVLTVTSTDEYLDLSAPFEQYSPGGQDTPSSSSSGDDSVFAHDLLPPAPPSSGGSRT
Sequence of human FGFR-1 (P11362 22-822 limits assumed): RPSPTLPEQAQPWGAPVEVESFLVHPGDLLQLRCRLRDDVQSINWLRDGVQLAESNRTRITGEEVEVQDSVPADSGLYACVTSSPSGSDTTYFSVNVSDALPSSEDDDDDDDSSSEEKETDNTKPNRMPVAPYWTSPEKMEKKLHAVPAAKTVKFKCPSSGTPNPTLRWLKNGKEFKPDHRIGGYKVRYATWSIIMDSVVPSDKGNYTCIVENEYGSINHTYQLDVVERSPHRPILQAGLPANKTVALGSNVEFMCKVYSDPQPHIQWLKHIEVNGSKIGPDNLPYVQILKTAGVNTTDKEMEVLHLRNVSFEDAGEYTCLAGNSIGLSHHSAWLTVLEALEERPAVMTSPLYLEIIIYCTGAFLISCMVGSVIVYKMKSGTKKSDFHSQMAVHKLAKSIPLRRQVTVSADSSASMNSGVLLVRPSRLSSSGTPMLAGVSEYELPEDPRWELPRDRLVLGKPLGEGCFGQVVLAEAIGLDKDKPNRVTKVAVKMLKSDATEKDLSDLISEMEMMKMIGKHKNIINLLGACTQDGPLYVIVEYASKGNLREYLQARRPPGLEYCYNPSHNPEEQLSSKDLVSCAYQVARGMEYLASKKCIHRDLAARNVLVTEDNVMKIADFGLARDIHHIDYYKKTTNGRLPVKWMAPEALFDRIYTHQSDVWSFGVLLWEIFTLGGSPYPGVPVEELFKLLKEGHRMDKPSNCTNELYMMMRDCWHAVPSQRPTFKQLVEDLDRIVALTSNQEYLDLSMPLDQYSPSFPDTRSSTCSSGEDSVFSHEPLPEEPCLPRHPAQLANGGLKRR

Work on `CCN(CC)C1CCN(Cc2cc(-c3cc4cc(C)cc(OC)c4s3)c3c(N)ncnn23)C1` (stereo not drawn) [Example 19] yielded an IC50 [1] of 277 nM, an IC50 (human FGFR-1) of 14.7 nM and an IC50 (human FGFR-3) of 27.2 nM. For the same molecule, the inhibition at 1 µM (human mTOR) was 25.9%.

For `COc1cc(C)cc2cc(-c3cc(CN4CCOCC4)n4ncnc(N)c34)sc12` [Example 10, 5-(7-Methoxy-5-methyl-1-benzothiophen-2-yl)-7-(morpholin-4-ylmethyl)pyrrolo[2,1-f][1,2,4]-triazin-4-amine], the IC50 [1] was 21 nM, the IC50 (human FGFR-1) was 94.9 nM and the IC50 (human FGFR-3) was 77.7 nM. For the same molecule, the inhibition at 1 µM (human mTOR) was 28.1%.

For `COc1cc(C)cc2cc(-c3cc(C(=O)N4CCC[C@](C)(N)C4)n4ncnc(N)c34)sc12` [Example 105], the IC50 [1] was 137 nM, the IC50 (human FGFR-1) was 20.4 nM and the IC50 (human FGFR-3) was 25.7 nM. The inhibition at 1 µM (human mTOR) was 17.1%.

`COc1cc(C)cc2cc(-c3cc(CN4CC[C@](C)(N)C4)n4ncnc(N)c34)sc12` [Example 5, 7-{[(3S)-3-Amino-3-methylpyrrolidin-1-yl]methyl}-5-(7-methoxy-5-methyl-1-benzothiophen-2-yl)pyrrolo[2,1-f][1,2,4]triazin-4-amine trihydrochloride] was tested, and the IC50 [1] was 48 nM, the IC50 (human FGFR-1) was 1.1 nM and the IC50 (human FGFR-3) was 7.4 nM. It also gave an inhibition at 1 µM (human mTOR) of 18.8%.

With `COc1cc(C)cc2cc(-c3cc(CNC(=O)CN)n4ncnc(N)c34)sc12` [Example 106, N-{[4-Amino-5-(7-methoxy-5-methyl-1-benzothiophen-2-yl)pyrrolo[2,1-f][1,2,4]triazin-7-yl]-methyl}glycinamide dihydrochloride] the IC50 [1] was 20 nM, the IC50 (human FGFR-1) was 25.4 nM and the IC50 (human FGFR-3) was 62.6 nM. The inhibition at 1 µM (human mTOR) was 5.6%.

Molecule `CCN[C@H]1CCN(Cc2cc(-c3cc4cc(C)cc(OC)c4s3)c3c(N)ncnn23)C1` [Example 16] has an IC50 [1] of 80 nM, an IC50 (human FGFR-1) of 15.6 nM and an IC50 (human FGFR-3) of 15.5 nM. The inhibition at 1 µM (human mTOR) was 26.7%.

From patent US9475815B2, “Substituted benzothienyl-pyrrolotriazines and uses thereof” (Bayer Intellectual Property GmbH, priority 2012, dated 2016)
